# Laboratory results taken from US20250352550A1, “SUBSTITUTED FUROPYRIDINES FOR THERAPEUTIC USE” (MASARYKOVA UNIVERZITA, priority 2022, published 2025).
# Key:
# DDR1 = target: T1, DDR1 (Homo sapiens, UniProt Q08345); experiment: HotSpot radiometric kinase assay (Reaction Biology), DDR1; assay type: biochemical; conditions: 200 nM kinase, substrate IRS1tide 20 μM, 33P-ATP, 120 minutes at room temperature
# T1 construct: purchased Reaction Biology
# Experimental: (§1) The compounds were profiled in the HotSpot radiometric assays (Reaction Biology).
# Briefly, • 1. Substrate indicated in Table 1 was dissolved in freshly prepared reaction buffer (20 mM HEPES (pH 7.5), 10 mM MgCl2, 1 mM EGTA, 0.01% Brij35, 0.02 mg/ml BSA, 0.1 mM Na3VO4, 2 mM DTT, 1% DMSO) at the concentration indicated in Table 1. • 2. Corresponding kinase (concentration indicated in Table 1) was added and the mixture was gently mixed. • 3. Tested compound dissolved in DMSO was added into the kinase reaction mixture. • 4. ^33P-ATP (specific activity 0.01 μCi/μL final) was added into the reaction mixture to initiate the reaction. • 5. The kinase reaction was incubated for 120 minutes at room temperature. • 6. […] The radioactive phosphorylated substrate remaining on the filter paper was measured.
# (§2) Kinase activity data were expressed as the percent remaining kinase activity in tested samples compared to the vehicle (DMSO) reactions. IC50 values and curve fits were obtained using Prism4 Software (GraphPad).
# FLT3 = target: T2, FLT3 (Homo sapiens, UniProt P36888); experiment: HotSpot radiometric kinase assay (Reaction Biology), FLT3; assay type: biochemical; conditions: 4 nM kinase, substrate ABLtide 20 μM, 33P-ATP, 120 minutes at room temperature
# T2 construct: purchased Reaction Biology
# T2 sequence (P36888 27-993): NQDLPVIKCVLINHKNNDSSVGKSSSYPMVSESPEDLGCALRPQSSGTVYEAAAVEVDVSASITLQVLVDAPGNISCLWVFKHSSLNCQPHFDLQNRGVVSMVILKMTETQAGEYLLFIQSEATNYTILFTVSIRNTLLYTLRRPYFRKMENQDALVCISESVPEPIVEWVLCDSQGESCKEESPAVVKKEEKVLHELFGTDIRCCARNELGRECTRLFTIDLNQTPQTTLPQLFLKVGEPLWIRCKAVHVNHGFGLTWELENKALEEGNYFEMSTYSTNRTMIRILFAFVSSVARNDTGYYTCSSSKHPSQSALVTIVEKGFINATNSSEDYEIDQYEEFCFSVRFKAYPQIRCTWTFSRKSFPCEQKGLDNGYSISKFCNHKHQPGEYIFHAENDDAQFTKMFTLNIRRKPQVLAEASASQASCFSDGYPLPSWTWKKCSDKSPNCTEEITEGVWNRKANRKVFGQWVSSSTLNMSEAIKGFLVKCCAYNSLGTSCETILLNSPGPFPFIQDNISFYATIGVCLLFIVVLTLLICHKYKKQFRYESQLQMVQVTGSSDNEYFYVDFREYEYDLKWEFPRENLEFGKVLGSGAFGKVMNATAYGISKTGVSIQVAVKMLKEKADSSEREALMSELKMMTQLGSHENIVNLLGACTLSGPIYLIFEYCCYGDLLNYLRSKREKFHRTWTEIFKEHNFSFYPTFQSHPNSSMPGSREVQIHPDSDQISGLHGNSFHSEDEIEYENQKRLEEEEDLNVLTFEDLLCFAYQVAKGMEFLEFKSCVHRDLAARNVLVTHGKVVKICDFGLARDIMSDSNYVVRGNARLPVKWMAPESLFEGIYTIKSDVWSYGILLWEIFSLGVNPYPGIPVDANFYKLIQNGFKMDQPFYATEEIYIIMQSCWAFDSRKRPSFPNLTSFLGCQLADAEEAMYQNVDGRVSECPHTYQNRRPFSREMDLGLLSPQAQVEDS
# Experimental: as §1
# Briefly, • 1. Substrate indicated in Table 1 was dissolved in freshly prepared reaction buffer (20 mM HEPES (pH 7.5), 10 mM MgCl2, 1 mM EGTA, 0.01% Brij35, 0.02 mg/ml BSA, 0.1 mM Na3VO4, 2 mM DTT, 1% DMSO) at the concentration indicated in Table 1. • 2. Corresponding kinase (concentration indicated in Table 1) was added and the mixture was gently mixed. • 3. Tested compound dissolved in DMSO was added into the kinase reaction mixture. • 4. ^33P-ATP (specific activity 0.01 μCi/μL final) was added into the reaction mixture to initiate the reaction. • 5. The kinase reaction was incubated for 120 minutes at room temperature. • 6. Reaction mixture was spotted onto P81 ion exchange paper (Whatman K 3698-915). • 7. The filters were extensively washed with […]. • 7. The radioactive phosphorylated substrate remaining on the filter paper was measured.
# as §2
# Table 2 summarizes the inhibitory activities of indicated compounds tested in the in vitro kinase assays described above.
# T1 sequence (Q08345 19-913): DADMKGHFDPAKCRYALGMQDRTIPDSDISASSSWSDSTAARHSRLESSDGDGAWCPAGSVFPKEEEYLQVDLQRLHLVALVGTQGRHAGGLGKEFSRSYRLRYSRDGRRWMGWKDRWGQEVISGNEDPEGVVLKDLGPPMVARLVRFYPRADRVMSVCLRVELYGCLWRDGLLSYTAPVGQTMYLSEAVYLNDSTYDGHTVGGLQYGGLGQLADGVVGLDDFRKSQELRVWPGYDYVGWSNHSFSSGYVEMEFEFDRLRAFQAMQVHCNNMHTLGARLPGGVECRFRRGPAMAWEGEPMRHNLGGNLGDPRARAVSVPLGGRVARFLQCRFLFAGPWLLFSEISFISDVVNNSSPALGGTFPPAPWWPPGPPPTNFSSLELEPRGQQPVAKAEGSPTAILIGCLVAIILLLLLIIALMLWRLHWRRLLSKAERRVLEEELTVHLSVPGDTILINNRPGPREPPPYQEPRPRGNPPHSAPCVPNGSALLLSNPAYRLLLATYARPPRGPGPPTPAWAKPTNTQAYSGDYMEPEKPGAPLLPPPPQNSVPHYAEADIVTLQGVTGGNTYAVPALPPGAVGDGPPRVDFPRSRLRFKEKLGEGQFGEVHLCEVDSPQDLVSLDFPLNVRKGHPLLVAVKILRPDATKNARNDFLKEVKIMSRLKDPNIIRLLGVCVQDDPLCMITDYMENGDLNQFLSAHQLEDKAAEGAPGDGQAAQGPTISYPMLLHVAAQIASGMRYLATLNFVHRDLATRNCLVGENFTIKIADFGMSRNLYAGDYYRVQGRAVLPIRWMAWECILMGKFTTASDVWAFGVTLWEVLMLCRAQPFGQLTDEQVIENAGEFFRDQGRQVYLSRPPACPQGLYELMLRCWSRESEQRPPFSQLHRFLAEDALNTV
SMILES,IC50 (DDR1) [nM],IC50 (FLT3) [nM]
"CN1CCN(c2ccc(-c3cnc4c(-c5cccc(CNC(=O)OC(C)(C)C)c5)coc4c3)cc2)CC1 [Preparative Example 135, tert-butyl (3-(6-(4-(4-methylpiperazin-1-yl)phenyl)furo[3,2-b]pyridin-3-yl)benzyl)carbamate]",423,350
"O=S(=O)(NCc1ccccc1)c1cccc(-c2coc3cc(-c4ccc(N5CCNCC5)cc4)cnc23)c1 [Preparative Example 122, N-benzyl-3-(6-(4-(piperazin-1-yl)phenyl)furo[3,2-b]pyridin-3-yl)benzenesulfonamide]",,138
"CCCc1oc2cc(-c3ccc(N4CCN(C)CC4)cc3)cnc2c1-c1cnn(C)c1 [Preparative Example 245, 1-methyl-4-{4-[3-(1-methyl-1H-pyrazol-4-yl)-2-propylfuro[3,2-b]pyridin-6-yl]phenyl}piperazine]",312,
"C(#Cc1coc2cc(-c3ccc(N4CCNCC4)cc3)cnc12)c1ccccc1 [Preparative Example 191, 1-{4-[3-(2-phenylethynyl)furo[3,2-b]pyridin-6-yl]phenyl}piperazine]",329,
"CN1CCN(c2ccc(-c3cnc4c(-c5cccc(C(N)=O)c5F)coc4c3)cc2)CC1 [Preparative Example 214, 2-fluoro-3-(6-(4-(4-methylpiperazin-1-yl)phenyl)furo[3,2-b]pyridin-3-yl)benzamide]",,496
"CN1CCN(c2ccc(-c3cnc4c(-c5cccc(-c6ccccc6)c5)coc4c3)cc2)CC1 [Preparative Example 158, 3-([1,1′-biphenyl]-3-yl)-6-(4-(4-methylpiperazin-1-yl)phenyl)furo[3,2-b]pyridine]",184,
"c1ncc(-c2coc3cc(-c4ccc(N5CCNCC5)cc4)cnc23)cn1 [Preparative Example 206, 5-{6-[4-(piperazin-1-yl)phenyl]furo[3,2-b]pyridin-3-yl}pyrimidine]",,203
"c1ccc(-c2cnc3c(-c4ccncc4)coc3c2)cc1 [Preparative Example 22, 6-phenyl-3-(pyridin-4-yl)furo[3,2-b]pyridine]",,183
"c1ccc(-c2coc3ccc(Nc4ccncc4)nc23)cc1 [compound 8D from WO 2015/165428, reference compound]",,1240
"COc1ccc(-c2coc3cc(-c4ccc(N5CCN(C)CC5)cc4)cnc23)cn1 [Preparative Example 259, 3-(6-methoxypyridin-3-yl)-6-(4-(4-methylpiperazin-1-yl)phenyl)furo[3,2-b]pyridine]",261,
"CC(C)c1ccc(-c2coc3cc(-c4ccc(N5CCNCC5)cc4)cnc23)cc1 [Preparative Example 67, 3-(4-isopropylphenyl)-6-(4-(piperazin-1-yl)phenyl)furo[3,2-b]pyridine]",,608
"Cc1nc2c(-c3ccncc3)coc2cc1-c1ccc(N2CCN(C)CC2)cc1 [Preparative Example 80, 5-methyl-6-(4-(4-methylpiperazin-1-yl)phenyl)-3-(pyridin-4-yl)furo[3,2-b]pyridine]",,137
"Cc1ccc(NC(=O)c2cccc(-c3coc4cc(-c5ccc(N6CCNCC6)cc5)cnc34)c2)cc1 [Preparative Example 119, 3-(6-(4-(piperazin-1-yl)phenyl)furo[3,2-b]pyridin-3-yl)-N-(p-tolyl)benzamide]",,790
"c1ccc(Nc2ccc3occ(-c4ccccc4)c3n2)cc1 [compound 8E from WO 2015/165428, reference compound]",,2720
"c1ccc(-c2coc3ccc(Nc4ccc(N5CCOCC5)cc4)nc23)cc1 [compound 8B from WO 2015/165428, reference compound]",,1950
"c1ccc(Nc2cnc3c(-c4ccncc4)coc3c2)cc1 [Preparative Example 84, N-phenyl-3-(pyridin-4-yl)furo[3,2-b]pyridin-6-amine]",,139
"Cc1cc(-c2coc3cc(-c4ccc(N5CCNCC5)cc4)cnc23)cc(C)n1 [Preparative Example 8, 3-(2,6-dimethylpyridin-4-yl)-6-(4-(piperazin-1-yl)phenyl)furo[3,2-b]pyridine]",,279
"CCCc1oc2cc(-c3ccc(N4CCN(C)CC4)cc3)cnc2c1-c1ccc(C(N)=O)cc1 [Preparative Example 243, 4-{6-[4-(4-methylpiperazin-1-yl)phenyl]-2-propylfuro[3,2-b]pyridin-3-yl}benzamide]",208,
"CN1CCN(c2ccc(Nc3ccc4occ(-c5ccccc5)c4n3)cc2)CC1 [compound 8C from WO 2015/165428, reference compound]",,1030
"CN1CCN(c2ccc(-c3cnc4c(-c5ccccc5)c(-c5ccccc5)oc4c3)cc2)CC1 [Preparative Example 249, 1-(4-{2,3-diphenylfuro[3,2-b]pyridin-6-yl}phenyl)-4-methylpiperazine]",549,

# More lines, now with the values ahead:
IC50 (DDR1) [nM],IC50 (FLT3) [nM],SMILES
734,46,"CC(=O)c1cc(-c2coc3cc(-c4ccc(N5CCN(C)CC5)cc4)cnc23)ccn1 [Preparative Example 156, 1-(4-(6-(4-(4-methylpiperazin-1-yl)phenyl)furo[3,2-b]pyridin-3-yl)pyridin-2-yl)ethan-1-one]"
791,49,"c1cc(-c2coc3cc(-c4ccc(N5CCNCC5)nc4)cnc23)ccn1 [Preparative Example 25, 6-(6-(piperazin-1-yl)pyridin-3-yl)-3-(pyridin-4-yl)furo[3,2-b]pyridine]"
,90,"Nc1ccc(-c2cnc3c(-c4ccncc4)coc3c2)cc1 [Preparative Example 47, 4-(3-(pyridin-4-yl)furo[3,2-b]pyridin-6-yl)aniline]"
,46,"NC(=O)Nc1cccc(-c2coc3cc(-c4ccccc4)cnc23)c1 [1-(3-(6-phenylfuro[3,2-b]pyridin-3-yl)phenyl)urea]"
,54,"CN1CCN(c2ccc(-c3cnc4c(-c5ccc(CC(N)=O)cc5)coc4c3)cc2)CC1 [Preparative Example 236, 2-(4-(6-(4-(4-methylpiperazin-1-yl)phenyl)furo[3,2-b]pyridin-3-yl)phenyl)acetamide]"
,113,"CN1CCN(c2ccc(-c3cnc4c(-c5ccc(NC(N)=O)cc5)coc4c3)cc2)CC1 [Preparative Example 251, (4-{6-[4-(4-methylpiperazin-1-yl)phenyl]furo[3,2-b]pyridin-3-yl}phenyl)urea]"
,99,"c1cc(-c2coc3cc(-c4ccc(N5CCOCC5)nc4)cnc23)ccn1 [Preparative Example 23, 6-(6-morpholinopyridin-3-yl)-3-(pyridin-4-yl)furo[3,2-b]pyridine]"
,122,"CN(C)CCN(C)c1ccc(Nc2cnc3c(-c4ccncc4)coc3c2)cc1 [Preparative Example 98, N^1-(2-(dimethylamino)ethyl)-N^1-methyl-N^4-(3-(pyridin-4-yl)furo[3,2-b]pyridin-6-yl)benzene-1,4-diamine]"
,136,"c1cc(-c2coc3cc(-c4ccc(N5CCCCC5)nc4)cnc23)ccn1 [Preparative Example 48, 6-(6-(piperidin-1-yl)pyridin-3-yl)-3-(pyridin-4-yl)furo[3,2-b]pyridine]"
